For 33 compounds, EC50 results are on record in patent publication US10968193B2, “Antidiabetic bicyclic compounds” (Merck Sharp & Dohme Corp., priority 2014, dated 2021).

This experiment deals with T1, human GPR40 (Homo sapiens, UniProt O14842).
T1 construct: expressed in transfected cells; host or cells: HEK cells stably expressing the aequorin reporter
Description: Inositol Phosphate Turnover (IP1) Assay 2. Type of experiment: cell-based. As to conditions: HEK cells stably expressing human GPR40; 15,000 cells per well; compound acoustically transferred; CisBio IP-One kit. As for the experimental part: Human and mouse GPR40 stable cell-lines were generated in CHO cells stably expressing NFAT BLA (Beta-lactamase). A human GPR40 stable cell-line was generated in HEK cells stably expressing the aequorin expressing reporter. The expression plasmids were transfected using lipofectamine (Life Technologies) following manufacturer's instructions. Stable cell-lines were generated following drug selection.
Inositol Phosphate Turnover (IP1) Assay 2:
The assay was performed in 384-well format. HEK cells stably expressing human GPR40 were plated at 15,000 cells per well in growth medium (DMEM/10% fetal calf serum). Cell plates were then incubated 16 hours at 37 degrees in a 5% CO2 incubator.
Measurement of Inositol Phosphate Turnover (IP1) was performed using the CisBio IP-One kit (Part number 62IPAPEB). After the 16 hour incubation, the cells were washed with HEPES buffer and 10 ul of stimulation buffer (prepared as described in the kit) was added to each well. In a separate plate, compounds were diluted in DMSO (400-fold over the final concentration in the assay well) and 25 nl was acoustically transferred to the appropriate well in the assay cell plate. The plates were then incubated for 60 minutes at 37 degrees. 10 ul of detection buffer (also prepared as described in the IP-One kit) was added to each well and the plates were incubated for 60 minutes in the dark. The plates were then read in a Perkin Elmer EnVision or equivalent reader able to measure FRET. Fluorescent ratio of emission at 665 and 620 nm was then converted to IP1 concentration by back calculating from an IP1 standard curve prepared at the time of the assay.

T1 sequence (O14842 whole entry): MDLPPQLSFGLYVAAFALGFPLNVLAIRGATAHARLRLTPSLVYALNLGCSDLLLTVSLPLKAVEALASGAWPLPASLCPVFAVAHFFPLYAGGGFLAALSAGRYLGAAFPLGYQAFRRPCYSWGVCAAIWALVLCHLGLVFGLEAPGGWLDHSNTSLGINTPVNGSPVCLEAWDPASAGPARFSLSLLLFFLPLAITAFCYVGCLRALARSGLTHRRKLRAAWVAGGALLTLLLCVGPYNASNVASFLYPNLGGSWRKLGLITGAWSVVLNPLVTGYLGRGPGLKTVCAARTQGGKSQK

The compound `COc1cc(-c2ccc(C3CCc4ccc([C@H](C5CC5)[C@H](C)C(=O)O)cc4O3)cc2CN2CC[C@H](O)C2)c(F)cn1` (stereo partly drawn) [Example 7] returned an EC50 of 118 nM.
The compound `COc1cc(-c2ccc(C3CCc4ccc([C@H](C5CC5)[C@H](C)C(=O)O)cc4O3)cc2CN2CC[C@@H](O)C2)c(F)cn1` (stereo partly drawn) [Example 8] registered a 50% effective concentration (EC50) of 238 nM.
Consider `COc1cc(-c2ccc(C3CCc4ccc([C@H](C5CC5)[C@H](C)C(=O)O)cc4O3)cc2CN2CCC(C(F)(F)F)C2)c(F)cn1` (stereo partly drawn) [Example 14], for which the midpoint of the response, the EC50, lay at 0.87 nM.
`COc1cc(-c2ccc(C3CCc4ccc([C@H](C5CC5)[C@H](C)C(=O)O)cc4O3)cc2CN2CC[C@H](F)C2)c(F)cn1` (stereo partly drawn) [Example 15]: the response was half-maximal at 1.1 nM (EC50).
The compound `COc1cc(-c2ccc(C3CCc4ccc([C@H](C5CC5)[C@H](C)C(=O)O)cc4O3)cc2CN2CC[C@@H](F)C2)c(F)cn1` (stereo partly drawn) [Example 16] yielded an EC50 of 2.3 nM.
For `COc1cc(-c2ccc(C3CCc4ccc([C@H](C5CC5)[C@H](C)C(=O)O)cc4O3)cc2CN2CC[C@@H](OC)C2)c(F)cn1` (stereo partly drawn) [Example 18] the value was 11 nM; for `COc1cc(-c2ccc(C3CCc4ccc([C@H](C5CC5)[C@H](C)C(=O)O)cc4O3)cc2CN2CC[C@H](OC)C2)c(F)cn1` (stereo partly drawn) [Example 19], 6.4 nM; for `COc1cc(-c2ccc(C3CCc4ccc([C@H](C5CC5)[C@H](C)C(=O)O)cc4O3)cc2CN(C)CC(F)(F)F)c(F)cn1` (stereo partly drawn) [Example 20], 0.84 nM.
For `CNCc1cc([C@@H]2CCc3ccc([C@H](C4CC4)[C@H](C)C(=O)O)cc3O2)ccc1-c1cc(OC)ncc1F` [Example 34, Sodium (2S,3R)-3-cyclopropyl-3-((S)-2-(4-(5-fluoro-2-methoxypyridin-4-yl)-3-((methylamino)methyl)phenyl)chroman-7-yl)-2-methylpropanoate] the value was 1.9 nM; for `COC[C@@H]1CCCN1Cc1cc(C2CCc3ccc([C@H](C4CC4)[C@H](C)C(=O)O)cc3O2)ccc1-c1cc(OC)ncc1F` (stereo partly drawn) [Example 36], 2.1 nM; for `COc1cc(-c2ccc(C3CCc4ccc([C@H](C5CC5)[C@H](C)C(=O)O)cc4O3)cc2CN2C3CCC2CC(OC)C3)c(F)cn1` (stereo partly drawn) [Example 37], 4.7 nM.
On to `COc1cc(-c2ccc(C3CCc4ccc([C@H](C5CC5)[C@H](C)C(=O)O)cc4O3)cc2CN2CCC[C@@H]2C)c(F)cn1` (stereo partly drawn) [Example 38], for which the midpoint of the response, the EC50, lay at 1.8 nM.
Then `COc1cc(-c2ccc(C3CCc4ccc([C@H](C5CC5)[C@H](C)C(=O)O)cc4O3)cc2CN2CCC3OCCC32)c(F)cn1` (stereo partly drawn) [Example 39], with 2.1 nM; and `COc1cc(-c2ccc(C3CCc4ccc([C@H](C5CC5)[C@H](C)C(=O)O)cc4O3)cc2CN2CCC3(CCCO3)C2)c(F)cn1` (stereo partly drawn) [Example 41], with 13 nM.
For `COc1cc(-c2ccc(C3CCc4ccc([C@H](C5CC5)[C@H](C)C(=O)O)cc4O3)cc2CN2CC3CC2CO3)c(F)cn1` (stereo partly drawn) [Example 43], the EC50 is 2.1 nM.
Consider `COC[C@H]1CCCN1Cc1cc(C2CCc3ccc([C@H](C4CC4)[C@H](C)C(=O)O)cc3O2)ccc1-c1cc(OC)ncc1F` (stereo partly drawn) [Example 44], for which the response was half-maximal at 1.8 nM (EC50).
`COc1cc(-c2ccc(C3CCc4ccc([C@H](C5CC5)[C@H](C)C(=O)O)cc4O3)cc2CN2CCCC(OC)C2)c(F)cn1` (stereo partly drawn) [Example 48] showed an EC50 of 3.6 nM.
Compound `COc1cc(-c2ccc(C3CCc4ccc([C@H](C5CC5)[C@H](C)C(=O)O)cc4O3)cc2CN2CCC[C@H]2C)c(F)cn1` (stereo partly drawn) [Example 50] gave an EC50 of 1.3 nM.
For `COc1cc(-c2ccc(C3CCc4ccc([C@H](C5CC5)[C@H](C)C(=O)O)cc4O3)cc2CN2CCOC[C@@H]2C)c(F)cn1` (stereo partly drawn) [Example 51] the value was 1 nM.
For `COc1cc(-c2ccc(C3CCc4ccc([C@H](C5CC5)[C@H](C)C(=O)O)cc4O3)cc2CN2CCC3(CCO3)C2)c(F)cn1` (stereo partly drawn) [Example 54] the value was 13 nM; for `COc1cc(-c2ccc(C3CCc4ccc([C@H](C5CC5)[C@H](C)C(=O)O)cc4O3)cc2CN2CCC2C)c(F)cn1` (stereo partly drawn) [Example 56], 7 nM.
Turning to `COC[C@@H]1CC[C@@H](COC)N1Cc1cc(C2CCc3ccc([C@H](C4CC4)[C@H](C)C(=O)O)cc3O2)ccc1-c1cc(OC)ncc1F` (stereo partly drawn) [Example 58], the EC50 worked out at 1.1 nM.
For `COc1cc(-c2ccc(C3CCc4ccc([C@H](C5CC5)[C@H](C)C(=O)O)cc4O3)cc2CN2[C@H](C)COC[C@H]2C)c(F)cn1` (stereo partly drawn) [Example 60] the value was 0.59 nM; for `COC[C@H]1CC[C@H](COC)N1Cc1cc(C2CCc3ccc([C@H](C4CC4)[C@H](C)C(=O)O)cc3O2)ccc1-c1cc(OC)ncc1F` (stereo partly drawn) [Example 65], 2 nM; for `COc1cc(-c2ccc(C3CCc4ccc([C@H](C5CC5)[C@H](C)C(=O)O)cc4O3)cc2CN2C3CCC2COC3)c(F)cn1` (stereo partly drawn) [Example 68], 0.7 nM.
On to `COc1cc(-c2ccc(C3CCc4ccc([C@H](C5CC5)[C@H](C)C(=O)O)cc4O3)cc2CN2C3CCC2CC3)c(F)cn1` (stereo partly drawn) [Example 69], for which a half-maximal effect (EC50) was put at 2.6 nM.
On to `COc1cc(-c2ccc(C3CCc4ccc([C@H](C5CC5)[C@H](C)C(=O)O)cc4O3)cc2CN2[C@H](C)CC[C@H]2C)c(F)cn1` (stereo partly drawn) [Example 70], for which a half-maximal effect (EC50) was put at 0.5 nM.
The compound `COc1cc(-c2ccc(C3CCc4ccc([C@H](C5CC5)[C@H](C)C(=O)O)cc4O3)cc2CN2CCC2C(F)(F)F)c(F)cn1` (stereo partly drawn) [Example 72] displayed an EC50 of 1.2 nM.
Compound `CCOc1cc(-c2ccc(C3CCc4ccc([C@H](C5CC5)[C@H](C)C(=O)O)cc4O3)cc2CN2CCCC2)c(F)cn1` (stereo partly drawn) [Example 77] returned an EC50 of 29 nM.
As to `COc1c[nH]nc1-c1ccc([C@@H]2CCc3ccc([C@H](C4CC4)[C@H](C)C(=O)O)cc3O2)cc1CN1CCCC1` [Example 79, Sodium (2S,3R)-3-cyclopropyl-3-((S)-2-(4-(4-methoxy-1H-pyrazol-3-yl)-3-(pyrrolidin-1-ylmethyl)phenyl)chroman-7-yl)-2-methylpropanoate], the EC50 was 4840 nM.
On to `COc1cc(-c2ccc([C@H]3CCc4ccc([C@H](C5CC5)[C@H](C)C(=O)O)cc4O3)cc2[C@H](C)N(C)C)c(F)cn1` [Example 80, (2S,3R)-3-cyclopropyl-3-((R)-2-(3-((S)-1-(dimethylamino)ethyl)-4-(5-fluoro-2-methoxypyridin-4-yl)phenyl)chroman-7-yl)-2-methylpropanoic acid], for which the EC50 came out at 11 nM.
`COc1cc(-c2ccc([C@H]3CCc4ccc([C@H](C5CC5)[C@H](C)C(=O)O)cc4O3)cc2[C@@H](C)N(C)C)c(F)cn1` [Example 81, (2S,3R)-3-cyclopropyl-3-((R)-2-(3-((R)-1-(dimethylamino)ethyl)-4-(5-fluoro-2-methoxypyridin-4-yl)phenyl)chroman-7-yl)-2-methylpropanoic acid]: a half-maximal response (EC50) required 4 nM.
The compound `COc1cc(-c2ccc([C@H]3CCc4ccc([C@H](C5CC5)[C@H](C)C(=O)O)cc4O3)cc2[C@H](C)N(C)C)c(F)cn1` [Example 82, (2S,3R)-3-cyclopropyl-3-((R)-2-(3-((S)-1-(dimethylamino)ethyl)-4-(5-fluoro-2-methoxypyridin-4-yl)phenyl)chroman-7-yl)-2-methylpropanoic acid] registered an EC50 of 13 nM.

As usually defined, the EC50 is the concentration giving half of the maximal effect. A low value points to higher potency in that assay.
